Series [1] concerns the target T1, ERK2 (Rattus norvegicus, UniProt P63086). In words: Dose-response effect of docking ligands on ERK2 phosphorylation of Sub-F. In kind it is biochemical.
Series [2] has as its target T1, ERK2. In words: Dose-response effect of docking ligands on ERK2 phosphorylation of Sub-D. Format: biochemical.
Series [3] deals with T1, ERK2. In words: Inhibition patterns for the phosphorylation of Sub-F by ERK2. In kind it is biochemical.
The target in series [4] is T1, ERK2. In words: Inhibition patterns for the phosphorylation of Sub-D by ERK2. In kind it is biochemical.
Series [5] addresses T1, ERK2. Format: biochemical.
In series [6] the target is T1, ERK2. The series can be described thus: Kinetics of Sub-F phosphorylation by ERK2 at saturating Lig-D. Format: biochemical.
The subject of series [7] is ERK•Ets-1 complex. The following applies: cited from earlier work.
Series [8] concerns the target T1, ERK2. The following applies: protein substrate; cited from earlier work.

“Also recorded” adds a separate entry of the source. Like-named read-outs stand apart in the source and are kept apart here. Where no end group is shown, it is not given here.

T1 sequence (P63086 whole entry): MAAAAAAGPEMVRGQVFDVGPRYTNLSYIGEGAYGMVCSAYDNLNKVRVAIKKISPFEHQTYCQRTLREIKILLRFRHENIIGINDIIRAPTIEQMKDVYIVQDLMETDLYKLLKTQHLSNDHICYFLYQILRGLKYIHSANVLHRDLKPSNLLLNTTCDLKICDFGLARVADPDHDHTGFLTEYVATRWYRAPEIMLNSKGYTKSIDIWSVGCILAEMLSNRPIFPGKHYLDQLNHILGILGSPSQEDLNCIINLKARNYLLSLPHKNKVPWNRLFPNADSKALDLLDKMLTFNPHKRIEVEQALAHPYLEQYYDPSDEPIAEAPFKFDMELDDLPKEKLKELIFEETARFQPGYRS

For `CC(=O)N[C@@H](Cc1ccccc1)C(=O)N[C@@H](CCC(N)=O)C(=O)N[C@@H](CCCNC(=N)N)C(=O)N[C@@H](CCCCN)C(=O)N[C@H](C(=O)N[C@@H](CC(C)C)C(=O)N[C@@H](CCC(N)=O)C(=O)N[C@@H](CCCNC(=N)N)C(=O)N[C@@H](CCCNC(=N)N)C(=O)N[C@@H](CC(N)=O)C(=O)N[C@@H](CC(C)C)C(=O)N[C@@H](CCCCN)C(=O)NCC(=O)N[C@@H](CC(C)C)C(=O)N[C@@H](CC(N)=O)C(=O)N[C@@H](CC(C)C)C(=O)N[C@@H](CC(N)=O)C(=O)N[C@@H](CC(C)C)C(N)=O)[C@@H](C)O` [Lig-D], it took 10 ± 8 µM to reach a half-maximal effect in series [1] (EC50). Moreover, the IC50 in series [2] amounted to 30 ± 4 µM.

Ac-YAPRAPAKLAFQFPSR-NH2 [Lig-F]: the Mechanism of inhibition result in series [3] (varied MgATP, fixed Sub-F) is on record as “Noncompetitive”; in series [3] (varied Sub-F, fixed MgATP) it was “Competitive”. 35 ± 3 µM corresponded to half-maximal inhibition in series [1] (IC50). In addition, in series [1] (Fig. 5B, Sub-F 15 μM, 1 mM MgATP, increasing ligand), the “Effect on Sub-F phosphorylation (kobs)” value was “competitively inhibits Sub-F”. Besides, in series [2] (Fig. 5A, Sub-D 3 μM, 1 mM MgATP, increasing ligand), the “Effect on Sub-D phosphorylation (kobs)” value is on record as “no effect on kobs for the phosphorylation of Sub-D; also recorded: no effect on the ability of ERK2 to phosphorylate Sub-D”.

`Nc1ncnc2c1ncn2[C@@H]1O[C@H](COP(=O)([O-])OP(=O)([O-])O)[C@@H](O)[C@H]1O.[Mg+2]` [MgADP]: the Mechanism of inhibition entry in series [3] (varied MgATP, fixed Sub-F) was “competitive pattern for towards MgATP^2-”; in series [3] (varied Sub-F, fixed MgATP), “Noncompetitive”; in series [4] (varied MgATP, fixed Sub-D), “competitive pattern for towards MgATP^2-”; in series [4] (varied Sub-D, fixed MgATP), “Noncompetitive”.

For YAEPLTPRILAKWEWPA-NH2 [Sub-F], the Ki is 3.3 ± 1.1 µM in series [5] and 5 ± 2 µM in series [6].

B1: Ets: murine (His6-tagged)Ets1(1-138), protein substrate of ERK2 (protein, UniProt P27577 1-138, looked up, fragment)
chain: MKAAVDLKPTLTIIKTEKVDLELFPSPDMECADVPLLTPSSKEMMSQALKATFSGFTKEQQRLGIPKDPRQWTETHVRDWVMWAVNEFSLKGVDFQKFCMSGAALCALGKECFLELAPDFVGDILWEHLEILQKEDVK
modifications: His6 tag
As for B1, the “stabilization of the ERK•Ets-1 complex by Ets-1 N-terminus docking to the DRS” value in series [7] was “approximately 10 fold”. In addition, in series [8], the “Kinetic mechanism of phosphorylation” value was “random-order mechanism” and the kcat/Km is 6e+06 M⁻¹ s⁻¹. Moreover, in series [5] (Table 1, fit to eqn. 2, 27 °C, pH 7.4, 2 nM ERK2), the kcat is reported as 17 ± 1 S^−1.

A word on the EC50: it is the midpoint of the concentration-response curve. Low readings indicate higher potency in that assay, high ones lower potency in that assay. What is called IC50 is the point on the concentration scale where inhibition reaches its midpoint. Lower therefore signals higher potency. One may read the Ki as the equilibrium dissociation constant of an inhibitor or competing ligand from its target. The low end stands for tighter binding, the high end for weaker binding. Broadly, the kcat/Km is the turnover number divided by the Michaelis constant.

Values taken from paper PMC3422614 (Biochemistry, 2011).
